Measured values as given in patent US11319344B2, “Non-membrane disruptive P53 activating stapled peptides” (AGENCY FOR SCIENCE, TECHNOLOGY AND RESEARCH, priority 2015, dated 2022).
Where two headings read alike, the source gives them in different places. *1 amine or outer side, *2 acyl side, *3 side chain or, on linkers, in order; H or OH if unused. Where a SMILES comes first, the peptide text is derived from it. Bridges are numbered along the chain shown (N, C = ends). [ ]: non-standard residue; d: D form. ξ: configuration not given here. ξαMeNle(6-ylidene) = CC(CCCC=[*:3])(N[*:1])C(=O)[*:2]; X1 = CC(CCCCCCC=[*:3])(N[*:1])C(=O)[*:2]; R8 = C=CCCCCCC[C@@](C)(N)C(=O)O; R5 = C=CCCC[C@@](C)(N)C(=O)O; S5 = C=CCCC[C@](C)(N)C(=O)O; Ahx = NCCCCCC(=O)O

How the values were obtained:
[1] = Circular dichroism spectroscopy (helicity in solution); type: physicochemical; details: peptide unbound in solution
[2] = test system: p53 transcriptional activity in T22 cells; experiment: T22 p53 β-galactosidase based reporter assay; type: cell-based, murine; details: for ability to induce p53 activity in T22 reporter assay: with and without serum; for IC50: T22 p53 reporter assay, 18 h
Description: The YS-01/04 peptides were screened in a murine T22-derived p53 reporter assay, either with or without fetal calf serum, to assess their ability to induce p53 transcriptional activity in intact cells (Table 1 and FIG. 3).
T22 cells, which were stably transfected with a p53 responsive β-galactosidase reporter, were seeded into 96-well plate at a cell density of 8000 cells per well. Cells were also maintained in Dulbecco's Minimal Eagle Medium (DMEM) with 10% fetal bovine serum (FBS) and penicillin/streptomycin. […] Measurements were carried out using a Safire II multiplate reader. Experiments were carried out independently twice.

[3] = target: N-terminal domain of Mdm2 (1-125) (Homo sapiens, UniProt Q00987); experiment: Competitive fluorescence anisotropy titration (apparent Kd); details: for Kd stronger in comparison to sMTIDE-02: ratio to sMTIDE-02 Kd
N-terminal domain of Mdm2 (1-125), sequence (Q00987 1-125): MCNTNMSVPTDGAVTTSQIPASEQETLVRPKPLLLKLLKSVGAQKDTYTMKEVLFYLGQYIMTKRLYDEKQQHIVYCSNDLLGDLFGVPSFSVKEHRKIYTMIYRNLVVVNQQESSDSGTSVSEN
Description: In this assay, a N-terminally FAM labelled peptide of the sequence [sequence]
The cells expressing the Mdm2 GST fusion construct were grown in LB medium at 37° C. to an OD600 of ˜0.6 and induction was carried out with 1 mM isopropyl β-D-1-thiogalactopyranoside (IPTG) at room temperature. Cells were harvested by centrifugation and the cell pellets were resuspended in 50 mM Tris pH 8.0, 10% sucrose and then sonicated. The sonicated sample was centrifuged for 60 minutes at 17,000 g at 4° C. […] The column was then further washed by 6 volumes of wash buffer. Mdm2 were then purified from the column by cleavage with PreScission protease. 10 units of PreScission protease, in one column volume of PBS with 1 mM DTT buffer, were injected onto the column. The cleavage reaction was allowed to proceed overnight at 4° C. The cleaved protein was then eluted of the column with wash buffer. Protein fractions were analysed with SDS-PAGE and concentrated using a Centricon (3.5 kDa molecular weight cut-off (MWCO)) concentrator. The Mdm2 protein sample was then dialyzed into a buffer solution containing 20 mM Bis-Tris, pH 6.5, 0.05M NaCl with 1 mM DTT and loaded onto a monoS column pre-equilibrated in buffer A (20 mM Bis-Tris, pH 6.5, 1 mM DTT). The column was then washed in 6 column volumes of buffer A and bound protein was eluted with a linear gradient of 1M NaCl over 25 column volumes. Protein fractions were analysed with sodium dodecyl sulfate-polyacrylamide gel electrophoresis (SDS-PAGE) and concentrated using a Centricon (3.5 kDa molecular weight cut-off (MWCO)) concentrator.
Apparent dissociation constant (Kd) values were determined for a variety of molecules via competitive fluorescence anisotropy experiments. […] The competing molecules were then titrated against the complex of the FAM labelled peptide and protein. Apparent dissociation constant (Kd) values were determined by fitting the experimental data to the equations shown below:
[L]st and [L]t denote labelled ligand and total unlabelled ligand input concentrations, respectively. Kd2 is the dissociation constant of the interaction between the unlabelled ligand and the protein. In all competitive types of experiments, it is assumed that [P]t>[L]st, otherwise considerable amounts of free labelled ligand would always be present and would interfere with measurements. […] The FAM-labelled peptide was dissolved in dimethyl sulfoxide (DMSO) at 1 mM and diluted into experimental buffer. Readings were carried out with a Envision Multilabel Reader. […] All titrations were carried out in triplicate. Curve-fitting was carried out using Prism 4.0 (GraphPad). […]

[4] = test system: p53 transcriptional activity in ARN8 cells; experiment: ARN8 β-galactosidase based p53 reporter assay; type: cell-based, Human; details: 18 h; for p53 activation (β-galactosidase activity) in ARN8 cells: serum free
Description: ARN8 cells contain the same β-galactosidase gene under the control of a p53 promoter that is stably transfected into T22 cells. […] The YS-07 and YS-09 titrations were again repeated and the lactate dehydrogenase leakage from ARN8 cells measured instead (FIGS. 8c and 8d).
ARN8 cells, which were stably transfected with a p53 responsive β-galactosidase reporter, were seeded into 96-well plate at a cell density of 8000 cells per well. Cells were also maintained in Dulbecco's Minimal Eagle Medium (DMEM) with 10% fetal bovine serum (FBS) and penicillin/streptomycin. […] Measurements were carried out using a Safire II multiplate reader. Experiments were carried out independently twice.

T22 cells = experiment: Lactate dehydrogenase release assay, T22 cells; type: cell-based; details: 2 h, 50/25/12.5 μM, absence or presence of serum
Description: (§1) The stapled YS-01/04 peptides were also screened for their ability to perturb the cell membrane wall of T22 and ARN8 cells and release cytosolic lactate dehydrogenase (LDH). An effect that is regarded as undesirable as this may indicate that the peptide is non-specifically toxic to different cell types. A short 2 hour time treatment period is used for this assay as it is assumed that perforation of the cell membrane occurs […] for cell programmed death. […] The lactate dehydrogenase leakage measured was much greater in ARN8 cells than T22 cells, showing that different cells vary in their sensitivities to the membrane disruptive properties of YS-03. […] This implies that p53 activation, which is also supported by the data for YS-04, does occur in the absence of membrane disruption and that the biological activity observed for is not a direct consequence of cellular toxicity.
(§2) T22 cells or ARN8 cells, both of which were stably transfected with a p53 responsive β-galactosidase reporter, were seeded into a 96-well plate at a cell density of 5000 cells per well. Cells were also maintained in Dulbecco's Minimal Eagle Medium (DMEM) with 10% fetal bovine serum (FBS) and penicillin/streptomycin. The cells were incubated for 24 hours and then treated with compounds/peptide for 2 hours in DMEM with or without 10% FBS. Cytosolic lactate dehydrogenase release was detected using the non-radioactive cytotoxicity Assay kit (Promega) as per manufacturer's instructions. Measurements were carried out using an Envision multiplate reader.

ARN8 cells = experiment: Lactate dehydrogenase release assay, ARN8 cells; type: cell-based; details: 2 h, 50/25/12.5 μM, absence or presence of serum
Description: as §1, §2

[5] = absence of serum, read-out: T22 IC50 (0% μM)
[6] = presence of 10% fetal calf serum, read-out: T22 Ic50 (10% μM)

SMILES | helicity in solution (CD spectra) [1] | ability to induce p53 activity in T22 reporter assay [2] | IC50 [2, 5] | IC50 [2, 6] | also measured
CC(=O)N[C@H](C(=O)N[C@@H](CO)C(=O)N[C@@H](Cc1ccccc1)C(=O)N[C@]1(C)CCCC=CCCC[C@](C)(C(=O)N[C@@H](CC(C)C)C(=O)N[C@@H](CC(C)C)C(=O)N[C@@H](CO)C(=O)N[C@@H](CCC(=O)O)C(=O)N[C@@H](CC(N)=O)C(=O)N[C@@H](Cc2ccc(O)cc2)C(N)=O)NC(=O)[C@H](Cc2c[nH]c3ccccc23)NC(=O)[C@H](Cc2ccc(O)cc2)NC(=O)[C@H](CCC(=O)O)NC1=O)[C@@H](C)O [YS-06, Ac-^17TSFX5EYWX5LLSENY^30-NH2] (Ac-TSF[R5]EYW[R5]LLSENY-NH2; staple 4-8) | significantly more helical structure | improvement of both peptides to activate p53 |  |  | 
CC(=O)N[C@@H](CCCNC(=N)N)C(=O)N[C@@H](CCCNC(=N)N)C(=O)N[C@@H](CCCNC(=N)N)C(=O)NCCCCCC(=O)N[C@H](C(=O)N[C@@H](CO)C(=O)N[C@@H](Cc1ccccc1)C(=O)NC1(C)CCCCCCC=CCCCC(C)(C(=O)N[C@@H](CCC(=O)O)C(=O)N[C@@H](CC(N)=O)C(=O)N[C@@H](Cc2ccc(O)cc2)C(N)=O)NC(=O)[C@H](CC(C)C)NC(=O)[C@H](CC(C)C)NC(=O)[C@H](C)NC(=O)[C@H](Cc2c[nH]c3ccccc23)NC(=O)[C@H](Cc2ccc(O)cc2)NC(=O)[C@H](CCC(=O)O)NC1=O)[C@@H](C)O (stereo partly shown) [YS-10, Ac-RRR-Ahx-^17TSFX8EYWALLS5ENY^30-NH2] (Ac-RRR[Ahx]TSF[X1]EYWALL[ξαMeNle(6-ylidene)]ENY-NH2; staple 8-15) |  |  | 1.69 µM | 17.9 µM | 
CC(=O)N[C@H](C(=O)N[C@@H](CO)C(=O)N[C@@H](Cc1ccccc1)C(=O)N[C@]1(C)CCCC=CCCC[C@](C)(C(=O)N[C@@H](CC(C)C)C(=O)N[C@@H](CC(C)C)C(=O)N2CCC[C@H]2C(=O)N[C@@H](CCC(=O)O)C(=O)N[C@@H](CC(N)=O)C(=O)N[C@@H](Cc2ccccc2)C(N)=O)NC(=O)[C@H](Cc2c[nH]c3ccccc23)NC(=O)[C@H](Cc2ccc(O)cc2)NC(=O)[C@H](CCC(=O)O)NC1=O)[C@@H](C)O [YS-01, Ac-^17TSFX5EYWX5LLPENF^30-NH2] (Ac-TSF[R5]EYW[R5]LLPENF-NH2; staple 4-8) |  |  |  |  | Kd stronger in comparison to sMTIDE-02 [3]: approximately 3 fold
CC(=O)N[C@@H](CCCNC(=N)N)C(=O)N[C@@H](CCCNC(=N)N)C(=O)N[C@@H](CCCNC(=N)N)C(=O)NCCCCCC(=O)N[C@H](C(=O)N[C@@H](CO)C(=O)N[C@@H](Cc1ccccc1)C(=O)NC1(C)CCCCCCC=CCCCC(C)(C(=O)N[C@@H](CCC(=O)O)C(=O)N[C@@H](CC(N)=O)C(=O)N[C@@H](Cc2ccccc2)C(N)=O)NC(=O)[C@H](CC(C)C)NC(=O)[C@H](CC(C)C)NC(=O)[C@H](C)NC(=O)[C@H](Cc2c[nH]c3ccccc23)NC(=O)[C@H](Cc2ccc(O)cc2)NC(=O)[C@H](CCC(=O)O)NC1=O)[C@@H](C)O (stereo partly shown) [YS-09, Ac-RRR-Ahx-^17TSFX8EYWALLS5ENF^30-NH2] (Ac-RRR[Ahx]TSF[X1]EYWALL[ξαMeNle(6-ylidene)]ENF-NH2; staple 8-15) |  |  | 1.98 µM | 11.6 µM | p53 activation in ARN8 cells ([4]; 10% serum): slightly more activity than YS-07; p53 activation (β-galactosidase activity) in ARN8 cells [4]: sharp burst of p53 transcriptional activity at 3.125 μM followed by a sharp decline at higher concentrations
CC(=O)N[C@@H](CCCCN)C(=O)N[C@@H](CCCCN)C(=O)NCCCCCC(=O)N[C@H](C(=O)N[C@@H](CO)C(=O)N[C@@H](Cc1ccccc1)C(=O)N[C@]1(C)CCCCCCC=CCCC[C@@](C)(C(=O)N[C@@H](CCC(=O)O)C(=O)N[C@@H](CC(N)=O)C(=O)N[C@@H](Cc2ccccc2)C(N)=O)NC(=O)[C@H](CC(C)C)NC(=O)[C@H](CC(C)C)NC(=O)[C@H](C)NC(=O)[C@H](Cc2c[nH]c3ccccc23)NC(=O)[C@H](Cc2ccc(O)cc2)NC(=O)[C@H](CCC(=O)O)NC1=O)[C@@H](C)O [YS-07, Ac-KK-Ahx-^17TSFX8EYWALLS5ENF^30-NH2] (Ac-KK[Ahx]TSF[R8]EYWALL[S5]ENF-NH2; staple 7-14) |  | most potent | ~0.78 µM | 9.95 µM | p53 activation (β-galactosidase activity) in ARN8 cells [4]: efficiently induced β-galactosidase activity
CC(=O)N[C@H](C(=O)N[C@@H](CO)C(=O)N[C@@H](Cc1ccccc1)C(=O)NC1(C)CCCC=CCCCC(C)(C(=O)N[C@@H](CC(C)C)C(=O)N[C@@H](CC(C)C)C(=O)N[C@@H](CO)C(=O)N[C@@H](CCC(=O)O)C(=O)N[C@@H](CC(N)=O)C(=O)N[C@@H](Cc2ccccc2)C(N)=O)NC(=O)[C@H](Cc2c[nH]c3ccccc23)NC(=O)[C@H](Cc2ccc(O)cc2)NC(=O)[C@H](CCC(=O)O)NC1=O)[C@@H](C)O (stereo partly shown) [YS-05, Ac-^17TSFX5EYWX5LLSENF^30-NH2] (Ac-TSF[ξαMeNle(6-ylidene)]EYW[ξαMeNle(6-ylidene)]LLSENF-NH2; staple 4-8) | significantly more helical structure | improvement of both peptides to activate p53 |  |  | cytosolic lactate dehydrogenase (LDH) release (T22 cells): negligible activity; cytosolic lactate dehydrogenase (LDH) release (ARN8 cells): negligible activity
CC(=O)N[C@@H](CCCCN)C(=O)N[C@@H](CCCCN)C(=O)NCCCCCC(=O)N[C@H](C(=O)N[C@@H](CO)C(=O)N[C@@H](Cc1ccccc1)C(=O)N[C@]1(C)CCCCCCC=CCCC[C@@](C)(C(=O)N[C@@H](CCC(=O)O)C(=O)N[C@@H](CC(N)=O)C(=O)N[C@@H](Cc2ccc(O)cc2)C(N)=O)NC(=O)[C@H](CC(C)C)NC(=O)[C@H](CC(C)C)NC(=O)[C@H](C)NC(=O)[C@H](Cc2c[nH]c3ccccc23)NC(=O)[C@H](Cc2ccc(O)cc2)NC(=O)[C@H](CCC(=O)O)NC1=O)[C@@H](C)O [YS-08, Ac-KK-Ahx-^17TSFX8EYWALLS5ENY^30-NH2] (Ac-KK[Ahx]TSF[R8]EYWALL[S5]ENY-NH2; staple 7-14) |  | least potent amongst the four peptides | 7.29 µM | 23.4 µM | 
CC(=O)N[C@H](C(=O)N[C@@H](CO)C(=O)N[C@@H](Cc1ccccc1)C(=O)NC1(C)CCCCCCC=CCCCC(C)(C(=O)N[C@@H](CCC(=O)O)C(=O)N[C@@H](CC(N)=O)C(=O)N[C@@H](Cc2ccc(O)cc2)C(N)=O)NC(=O)[C@H](CC(C)C)NC(=O)[C@H](CC(C)C)NC(=O)[C@H](C)NC(=O)[C@H](Cc2c[nH]c3ccccc23)NC(=O)[C@H](Cc2ccc(O)cc2)NC(=O)[C@H](CCC(=O)O)NC1=O)[C@@H](C)O (stereo partly shown) [YS-04, Ac-^17TSFX8EYWALLS5ENY^30-NH2] | significantly more helical in character in solution than YS-01 and YS-02 | greater potency in the T22 assay than YS-01 and YS-02 | 9.73 µM | 78.3 µM | Kd weaker than the i,i+4 analogue peptides (YS-01 and YS-02) ([3]; ratio to YS-01/YS-02 Kd): approximately 2 fold
CC(=O)N[C@H](C(=O)N[C@@H](CO)C(=O)N[C@@H](Cc1ccccc1)C(=O)NC1(C)CCCC=CCCCC(C)(C(=O)N[C@@H](CC(C)C)C(=O)N[C@@H](CC(C)C)C(=O)N2CCC[C@H]2C(=O)N[C@@H](CCC(=O)O)C(=O)N[C@@H](CC(N)=O)C(=O)N[C@@H](Cc2ccc(O)cc2)C(N)=O)NC(=O)[C@H](Cc2c[nH]c3ccccc23)NC(=O)[C@H](Cc2ccc(O)cc2)NC(=O)[C@H](CCC(=O)O)NC1=O)[C@@H](C)O (stereo partly shown) [YS-02, Ac-^17TSFX5EYWX5LLPENY^30-NH2] (Ac-TSF[ξαMeNle(6-ylidene)]EYW[ξαMeNle(6-ylidene)]LLPENY-NH2; staple 4-8) |  |  |  |  | cytosolic lactate dehydrogenase (LDH) release (T22 cells): negligible lactate dehydrogenase release; cytosolic lactate dehydrogenase (LDH) release (ARN8 cells): negligible lactate dehydrogenase release; Kd stronger in comparison to sMTIDE-02 [3]: approximately 3 fold
